The subject of data set [1] is SARS-CoV-2 replication in Vero E6 cells. The settings on record: cited from earlier work.
For data set [2] the following is noted: for myricetin consumed: GSH, 600 min.
Data set [3] concerns SARS-CoV-2 replication in Vero E6 cells. As to the kind of experiment: microbe, parasite or virus in culture. In kind it is cell-based.
For data set [4] the following is noted: male, ICR, in vivo, po, 30 mg/kg.
Data set [5] can be described thus: in vivo. Conditions: male, ICR, mouse; for AUC(0-inf): AUCINF_obs; for AUC(0-t): AUClast; for MRT inf: MRTINF_obs; for half-life: T1/2.
Data set [6] can be described thus: PK study in mice. Conditions: mouse; for half-life: male, ICR, plasma; for T1/2: individual animals.
Data set [7] addresses SARS-CoV-2 PLpro (Severe acute respiratory syndrome coronavirus 2, UniProt P0DTD1). It counts as biochemical.
The target in data set [8] is chymotrypsin from bovine pancreas (Bos taurus, UniProt P00766). As to the kind of experiment: biochemical.
Data set [9] is described as follows: in vitro. Conditions: African green monkey.
Data set [10] relates to Vero E6 cells.
The mark [11] stands for this setting: Severe acute respiratory syndrome coronavirus 2, Vero C1008, 24 h.
The mark [12] stands for this setting: iv, 10 mg/kg, Concentration in mouse plasma, Mean.
Setting [13] is: po, 30 mg/kg, Concentration in mouse plasma.
[14] abbreviates: po, 30 mg/kg, Concentration in mouse plasma, Mean.
Where [15] appears, read: Severe acute respiratory syndrome coronavirus 2, Vero C1008.

Several values for one entry are separate records, joined by “and”; a condition that tells them apart may be missing. Equal values may be shown once. Read-outs that look alike come from different tables or passages of the source.

In the case of `O=c1cc(-c2ccccc2)oc2cc(O)c(O)c(O)c12` [baicalein, reference compound], the EC50 (in general, the concentration that produces a half-maximal response) in [1] is 2940 nM. Also, the “adduct with GSH” value in data set [2] is “no adduct of GSH with baicalein was detected”.

The compound `COc1cc(O)c2c(=O)c(O)c(-c3cc(O)c(O)c(O)c3)oc2c1` [compound 3, 7-O-methyl myricetin] gave an EC50 in [3] (setting [11]) of 12.6 µM.

For `O=c1c(O)c(-c2cc(O)c(O)c(O)c2)oc2cc(OCC3CCCC3)cc(O)c12` [compound 6, 7-O-cyclopentylmethyl-myricetin], the “inhibition ratio (%)” value in [3] (100 µM) was 99.992% and 99.991% and 99.989% and 98.833% and 95.7336% and 99.607% and 99.987% and 99.985%. In addition, in data set [3] (read-out: EC50), the EC50 is 10.1 µM and 7.07 µM and 5.5 µM.

With `COc1cc(O)c2c(c1)O[C@H](c1cc(O)c(O)c(O)c1)[C@@H](O)C2=O` [compound 7, 7-O-methyl dihydromyricetin], the “Concentration in mouse plasma” value in [4] (8 h) was found to be 11.5 ng/mL. The “inhibition ratio (%)” value is 21.811% and 15.067% and 12.154% in data set [3] (6.25 µM); 58.083% and 57.749% and 55.409% in [3] (25 µM); 75.679% and 73.921% and 74.205% in data set [3] (50 µM); 99.619% and 99.626% and 99.565% in [3] (200 µM). In [3] (setting [11]), this compound showed an EC50 of 11.5 µM. Further, the bioavailability – broadly, the share of a dose that reaches the circulation, judged against a reference dose that is usually intravenous – turned out to be 18.1% in data set [5] and 18.1% in data set [5] (po, 30 mg/kg). For the same compound, the MRT (as a rule, the average time that molecules of a dose stay in the body) in data set [5] (iv, 10 mg/kg) came to 41.4 ± 51.6 min; in data set [5] (po, 30 mg/kg) it was 113 min. This compound had a concentration at 0.05 h in [5] (setting [12]) of 3190 ng/mL. In addition, the concentration at 2 h amounted to 62.4 ng/mL in [5] (setting [12]) and 61.2 ng/mL in [5] (setting [14]). Further, the concentration at 4 h in [5] (setting [12]) was determined as 23.6 ng/mL; in data set [5] (setting [14]), 32.9 ng/mL. Besides, the concentration at 8 h in [5] (setting [12]) worked out at 0 ng/mL; in [5] (setting [13]), 10.1 ng/mL; in data set [5] (setting [14]), 4.32 ng/mL. Also, the concentration at 24 h in data set [5] (setting [12]) and in data set [5] (setting [14]) was 0 ng/mL in each case. Further, in [5] (po, 30 mg/kg), the Tmax (usually the time at which the peak concentration occurs) was found to be 15 min. The AUC(0-inf) – broadly, total exposure, with the tail of the curve extrapolated – in data set [5] (po, 30 mg/kg) turned out to be 588 ng·h/mL. Besides, the AUC(0-t) (as a rule, exposure summed from dosing to a finite time, without extrapolation to infinity) in data set [5] (po, 30 mg/kg) is 510 ng·h/mL. In addition, the concentration at 0.5 h in data set [5] (setting [13]) is 200 ng/mL; in [5] (setting [14]), 279 ng/mL. The concentration at 1 h in data set [5] (setting [13]) was 112 ng/mL; in [5] (setting [14]), 118 ng/mL. Further, the half-life – broadly, the time in which the quantity being followed falls by half – was 34.8 ± 37.8 min in data set [6] (iv, 10 mg/kg, T1/2, mice, i.v. 10 mg/kg); 34.8 min in data set [6] (iv, 10 mg/kg, T1/2, mouse, i.v. 10 mg/kg, mean); 104 min in data set [6] (po, 30 mg/kg, T1/2, mice, p.o. 30 mg/kg); 104 min in data set [6] (po, 30 mg/kg, T1/2, mouse, p.o. 30 mg/kg, mean). In addition, the T1/2 was 0.12 h and 1.62 h and 0.09 h and 0.67 h and 0.38 h in [6] (i.v. 10 mg/kg, 10 mg/kg); 1.85 h and 3.11 h and 1.44 h and 1.31 h and 0.98 h in data set [6] (p.o. 30 mg/kg, 30 mg/kg).

`O=c1c(O)c(-c2cc(O)c(O)c(O)c2)oc2cc(OP(=O)(Oc3ccccc3)Oc3ccccc3)cc(O)c12` [compound 9] displayed a half-maximal effective concentration (EC50) in data set [3] (setting [11]) of 3.15 µM.

For `O=C1c2c(O)cc(OP(=O)(Oc3ccccc3)Oc3ccccc3)cc2O[C@H](c2cc(O)c(O)c(O)c2)[C@H]1O` [compound 10], the concentration for a half-maximal effect (EC50) in data set [3] was 6.99 µM and 8.24 µM and 10.2 µM and 10.4 µM and 8.4 µM; in data set [3] (setting [15]), 9.94 µM; in data set [3] (setting [11]), 9.03 µM.

As for `O=C1c2c(O)cc(O)cc2O[C@H](c2cc(O)c(O)c(O)c2)[C@H]1O` [dihydromyricetin], the EC50 is 13.9 µM and 9.94 µM and 13.7 µM and 14 µM and 17.6 µM in data set [3]; 12.3 µM in [3] (setting [15]); 13.6 µM in [3] (setting [11]).

In data set [4] (mouse), `O=c1c(O)c(-c2cc(O)c(O)c(O)c2)oc2cc(O)cc(O)c12` [myricetin, 3,5,7,3′,4′,5′-hexahydroxyflavone] yielded a T1/2 of 26.4 min. The “times weaker than against 3CLpro” value in data set [7] and in data set [8] was “more than 100” each time. The compound also had an EC50 in data set [3] (setting [11]) of 8 µM. The MRT worked out at 5.4 min in data set [5] (ip, 10 mg/kg) and 50.4 min in data set [5] (po, 30 mg/kg). In addition, the AUC(0-inf) was 1040 ng·h/mL in [5] (ip, 10 mg/kg) and 8.51 ng·h/mL in [5] (po, 30 mg/kg). Further, the AUC(0-t) in data set [5] (ip, 10 mg/kg) is 1090 ± 103 ng·h/mL; in data set [5] (po, 30 mg/kg), 6.07 ng·h/mL. Besides, the Cmax – broadly, the maximum level reached in the sampled fluid or tissue – is 1800 ± 346 ng/mL in [5] (ip, 10 mg/kg) and 8.59 ng/mL in data set [5] (po, 30 mg/kg). Also, the MRT inf (as a rule, the average time that molecules of a dose stay in the body) in [5] (ip, 10 mg/kg) stood at 66.6 min; in [5] (po, 30 mg/kg) it was 50.4 min. The half-life in data set [5] (ip, 10 mg/kg) is 126 ± 1.2 min; in data set [5] (po, 30 mg/kg), 26.4 min. Also, the Tmax in [5] (po, 30 mg/kg, Tmax) is 30 min. The IC50 (in general, the concentration needed to halve the response being measured) in [8] was 132 ± 10.6 µM. The CC50 in [9] is greater than 200 µM. For the same compound, the myricetin consumed in data set [2] (absence of oxygen) is 11%; in data set [2] (presence of oxygen) it was 65%. The “Ln(%parent)” value is 4.593 and 4.572 and 4.649 in [2] (myricetin reacting with glutathione, 0h); 4.472 and 4.529 and 4.531 in data set [2] (myricetin reacting with glutathione, 2h); 4.27 and 4.376 and 4.3091 in data set [2] (myricetin reacting with glutathione, 4h); 4.107 and 4.203 and 4.174 in [2] (myricetin reacting with glutathione, 6h); 3.902 and 4.0179 and 3.984 in [2] (myricetin reacting with glutathione, 8h); 3.729 and 3.812 and 3.826 in [2] (myricetin reacting with glutathione, 10h). The kpseudo1st in data set [2] (myricetin reacting with glutathione, single independent experiment) is 0.001475 and 0.001311 and 0.001403.

`CCC(CC)COC(=O)[C@H](C)N[P@](=O)(OC[C@H]1O[C@@](C#N)(c2ccc3c(N)ncnn23)[C@H](O)[C@@H]1O)Oc1ccccc1` [remdesivir, reference compound] registered an EC50 in data set [3] (setting [11]) of 3.68 µM.

`CCC(CC)COC(=O)[C@H](C)N[P@](=O)(OC[C@H]1O[C@@](C#N)(c2ccc3c(N)ncnn23)[C@H](O)[C@@H]1O)Oc1ccccc1` [remisivir]: the “inhibition ratio (%)” value was 99.5877% and 102.33% and 102.223% in [10] (concentration 2.34375 (unit not given)); 100.126% and 103.513% and 104.159% in [10] (concentration 4.6875 (unit not given)); 103.244% and 98.6198% and 99.2113% in data set [10] (concentration 9.375 (unit not given)); 101.362% and 100.126% and 95.6085% in data set [10] (concentration 18.75 (unit not given)); 102.707% and 103.352% and 97.8132% in data set [10] (concentration 37.5 (unit not given)); 97.383% and 95.0708% and 98.7274% in data set [10] (concentration 75 (unit not given)). Also, the “inhibition ratio (%)” value in data set [10] (concentration 150 (unit not given)) was 83.7247% and 84.1011% and 85.4454%; in data set [10] (concentration 300 (unit not given)), 42.4807% and 43.2336% and 43.126%. In addition, in [3] (read-out: EC50 (µM) Mean), the concentration for a half-maximal effect (EC50) was determined as 3.68 µM.

As for N-phenylacrylamide [reference compound], the kpseudo1st in data set [2] was 0.02117 and 0.01952 and 0.0207.

These data come from paper PMC8206078, “Identification of pyrogallol as a warhead in design of covalent inhibitors for the SARS-CoV-2 3CL protease” (Nature Communications, 2021).
